Holding throughout (experiment): Test Example 1: herbicidal effect by soil application to paddy field
Format in all cases: in vivo

The subject of test [1] is Japanese bulrush (Scirpus juncoides Roxb.). Particulars: for herbicidal effect, Scirpus juncoides Roxb.: paddy field soil application, active ingredient 1,000 g per 1 hectare, wettable powder added dropwise to water surface the day after sowing, examined on the 21st day after application. The text has this:
(§1) Test Example 1 Test on Herbicidal Effect by Soil Application to Paddy Field In a 100 cm2 plastic pot, paddy field soil was filled. After puddling and leveling, seeds of early watergrass (Echinochloa oryzicola […] (Monochoria vaginalis ([…] Japanese bulrush (Scirpus juncoides Roxb.) were sown, and water was filled to be flooded to a water depth of 3 cm. […] Then, on the 21st day after the application to the plants grew in a greenhouse, the herbicidal effect was examined in accordance with a standard shown in Table 34. [table]

The test system of test [2] is early watergrass (Echinochloa oryzicola Vasing). As to conditions: for herbicidal effect, Echinochloa oryzicola Vasing: paddy field soil application, active ingredient 1,000 g per 1 hectare, wettable powder added dropwise to water surface the day after sowing, examined on the 21st day after application.
Excerpt: as §1

The test system of test [3] is heartshape false pickerelweed (Monochoria vaginalis (Burm.f.) C.Presl). As to conditions: for herbicidal effect, Monochoria vaginalis (Burm. f.) C. Presl: paddy field soil application, active ingredient 1,000 g per 1 hectare, wettable powder added dropwise to water surface the day after sowing, examined on the 21st day after application.
Excerpt: as §1

Setting [4] is: soil application to paddy field, rated by standard of Table 34.

Consider `CCCS(=O)(=O)Oc1c(C(=O)c2ccc(C(F)(F)F)n(CCCSC)c2=O)cnn1C` [IV-57], for which the “herbicidal effect, Scirpus juncoides Roxb.” value in test [1] is 2 (30 to less than 50% of herbicidal effect and crop phytotoxicity). In test [2], the “herbicidal effect, Echinochloa oryzicola Vasing” value is 5 (90% or more of herbicidal effect and crop phytotoxicity). For the same molecule, in test [3], the “herbicidal effect, Monochoria vaginalis (Burm. f.) C. Presl” value (“herbicidal effect, Monochoria vaginalis” for short) was 5 (90% or more of herbicidal effect and crop phytotoxicity).
Turning to `CCn1ncc(C(=O)c2ccc(C(F)(F)F)n(CC3CCCO3)c2=O)c1OC(=O)c1c(Cl)cc(Cl)cc1Cl` (stereo not drawn) [IV-206], in test [1], the “herbicidal effect, Scirpus juncoides Roxb.” value was 5 (90% or more of herbicidal effect and crop phytotoxicity). Moreover, the “herbicidal effect, Echinochloa oryzicola Vasing” value in test [2] was 5 (90% or more of herbicidal effect and crop phytotoxicity). Besides, in test [3], the “herbicidal effect, Monochoria vaginalis” value was 5 (90% or more of herbicidal effect and crop phytotoxicity).
As for `Cn1ncc(C(=O)c2ccc(C(F)(F)F)n(CCCS(C)(=O)=O)c2=O)c1O` [IV-60], in test [1], the “herbicidal effect, Scirpus juncoides Roxb.” value is 5 (90% or more of herbicidal effect and crop phytotoxicity). Further, in test [2], the “herbicidal effect, Echinochloa oryzicola Vasing” value is 5 (90% or more of herbicidal effect and crop phytotoxicity). The “herbicidal effect, Monochoria vaginalis” value in test [3] is 5 (90% or more of herbicidal effect and crop phytotoxicity).
As to `O=C1CCCC(O)=C1C(=O)c1ccc(C(F)(F)F)n(Cc2ccccc2[N+](=O)[O-])c1=O` [I-115], the “herbicidal effect, Scirpus juncoides Roxb.” value in test [1] was 5 (90% or more of herbicidal effect and crop phytotoxicity). Moreover, the “herbicidal effect, Echinochloa oryzicola Vasing” value in test [2] is 5 (90% or more of herbicidal effect and crop phytotoxicity). In addition, the “herbicidal effect, Monochoria vaginalis” value in test [3] is 5 (90% or more of herbicidal effect and crop phytotoxicity).
For the molecule `COc1ccc(Cn2c(C(F)(F)F)ccc(C(=O)C3=C(O)CCCC3=O)c2=O)cc1` [I-122], the “herbicidal effect, Scirpus juncoides Roxb.” value in test [1] is 5 (90% or more of herbicidal effect and crop phytotoxicity). Moreover, in test [2], the “herbicidal effect, Echinochloa oryzicola Vasing” value was 5 (90% or more of herbicidal effect and crop phytotoxicity). In test [3], the “herbicidal effect, Monochoria vaginalis” value is 5 (90% or more of herbicidal effect and crop phytotoxicity).
In the case of `Cn1c(C(F)(F)F)ccc(C(=O)C(C#N)C(=O)C2CC2)c1=O` (stereo not drawn) [V-9, 2-cyano-3-cyclopropyl-1-[1,2-dihydro-1-methyl-2-oxo-6-(trifluoromethyl)pyridin-3-yl]propane-1,3-dione], in test [1] (setting [4]), the “herbicidal effect (index), Scirpus juncoides Roxb.” value was 5 (90% or more of herbicidal effect and crop phytotoxicity). Moreover, in test [2] (setting [4]), the “herbicidal effect (index), Echinochloa oryzicola Vasing” value was 5 (90% or more of herbicidal effect and crop phytotoxicity). Also, in test [3] (setting [4]), the “herbicidal effect (index), Monochoria vaginalis (Burm.f.) C.Presl” value was 5 (90% or more of herbicidal effect and crop phytotoxicity).
For the molecule `CCCS(=O)(=O)Oc1c(C(=O)c2ccc(Cl)n(C)c2=O)cnn1C` [IV-242], in test [1], the “herbicidal effect, Scirpus juncoides Roxb.” value is 5 (90% or more of herbicidal effect and crop phytotoxicity). In test [2], the “herbicidal effect, Echinochloa oryzicola Vasing” value was 5 (90% or more of herbicidal effect and crop phytotoxicity). In addition, in test [3], the “herbicidal effect, Monochoria vaginalis” value is 4 (70 to less than 90% of herbicidal effect and crop phytotoxicity).
As for `Cc1ccc(S(=O)(=O)Oc2c(C(=O)c3ccc(C(F)(F)F)n(C)c3=O)c(C)nn2C)cc1` [IV-236], the “herbicidal effect, Scirpus juncoides Roxb.” value in test [1] is 5 (90% or more of herbicidal effect and crop phytotoxicity). Further, the “herbicidal effect, Echinochloa oryzicola Vasing” value in test [2] is 5 (90% or more of herbicidal effect and crop phytotoxicity). Besides, the “herbicidal effect, Monochoria vaginalis” value in test [3] is 5 (90% or more of herbicidal effect and crop phytotoxicity).
For `CC(C)c1ccc(C(=O)C2=C(O)CCCC2=O)c(=O)n1-c1ccccc1` [I-232], the “herbicidal effect, Scirpus juncoides Roxb.” value in test [1] was 5 (90% or more of herbicidal effect and crop phytotoxicity). Further, in test [2], the “herbicidal effect, Echinochloa oryzicola Vasing” value was 5 (90% or more of herbicidal effect and crop phytotoxicity). For the same molecule, the “herbicidal effect, Monochoria vaginalis” value in test [3] is 5 (90% or more of herbicidal effect and crop phytotoxicity).
`Cc1cc(C)c(C(=O)Oc2c(C(=O)c3ccc(C(F)(F)F)n(CC4CCCO4)c3=O)cnn2C)c(C)c1` (stereo not drawn) [IV-135]: the “herbicidal effect, Scirpus juncoides Roxb.” value in test [1] is 5 (90% or more of herbicidal effect and crop phytotoxicity). Also, in test [2], the “herbicidal effect, Echinochloa oryzicola Vasing” value was 5 (90% or more of herbicidal effect and crop phytotoxicity). Also, the “herbicidal effect, Monochoria vaginalis” value in test [3] is 5 (90% or more of herbicidal effect and crop phytotoxicity).
Turning to `COC1=C(C(=O)c2ccc(C(F)(F)F)n(C)c2=O)C(=O)CCC1C` (stereo not drawn) [II-35], the “herbicidal effect, Scirpus juncoides Roxb.” value in test [1] is 5 (90% or more of herbicidal effect and crop phytotoxicity). Further, the “herbicidal effect, Echinochloa oryzicola Vasing” value in test [2] is 5 (90% or more of herbicidal effect and crop phytotoxicity). Also, in test [3], the “herbicidal effect, Monochoria vaginalis” value is 5 (90% or more of herbicidal effect and crop phytotoxicity).
Consider `Cc1ccc(S(=O)(=O)Oc2c(C(=O)c3ccc(C(F)(F)F)n(CC4CCCO4)c3=O)c(C)nn2C)cc1` (stereo not drawn) [IV-240], for which, in test [1], the “herbicidal effect, Scirpus juncoides Roxb.” value was 5 (90% or more of herbicidal effect and crop phytotoxicity). Moreover, in test [2], the “herbicidal effect, Echinochloa oryzicola Vasing” value is 5 (90% or more of herbicidal effect and crop phytotoxicity). Besides, the “herbicidal effect, Monochoria vaginalis” value in test [3] is 5 (90% or more of herbicidal effect and crop phytotoxicity).
Consider `Cc1ccc(SC2=C(C(=O)c3ccc(C(F)(F)F)n(C)c3=O)C(=O)CCC2)cc1` [II-9], for which, in test [1], the “herbicidal effect, Scirpus juncoides Roxb.” value was 5 (90% or more of herbicidal effect and crop phytotoxicity). Further, the “herbicidal effect, Echinochloa oryzicola Vasing” value in test [2] was 5 (90% or more of herbicidal effect and crop phytotoxicity). Also, the “herbicidal effect, Monochoria vaginalis” value in test [3] is 5 (90% or more of herbicidal effect and crop phytotoxicity).
For the molecule `COc1cccc(Cn2c(C(F)(F)F)ccc(C(=O)C3=C(O)CCCC3=O)c2=O)c1` [I-121], the “herbicidal effect, Scirpus juncoides Roxb.” value in test [1] was 5 (90% or more of herbicidal effect and crop phytotoxicity). The “herbicidal effect, Echinochloa oryzicola Vasing” value in test [2] is 5 (90% or more of herbicidal effect and crop phytotoxicity). In addition, the “herbicidal effect, Monochoria vaginalis” value in test [3] is 5 (90% or more of herbicidal effect and crop phytotoxicity).
For `Cn1c(C(F)(F)F)ccc(C(=O)C2=C(n3cccn3)CCCC2=O)c1=O` [II-17], the “herbicidal effect, Scirpus juncoides Roxb.” value in test [1] is 5 (90% or more of herbicidal effect and crop phytotoxicity). For the same molecule, the “herbicidal effect, Echinochloa oryzicola Vasing” value in test [2] is 5 (90% or more of herbicidal effect and crop phytotoxicity). The “herbicidal effect, Monochoria vaginalis” value in test [3] is 5 (90% or more of herbicidal effect and crop phytotoxicity).
`CC(C)(C)OC(=O)Nn1c(C(F)(F)F)ccc(C(=O)C2=C(O)CCCC2=O)c1=O` [I-193]: the “herbicidal effect, Scirpus juncoides Roxb.” value in test [1] was 5 (90% or more of herbicidal effect and crop phytotoxicity). In test [2], the “herbicidal effect, Echinochloa oryzicola Vasing” value is 5 (90% or more of herbicidal effect and crop phytotoxicity). Also, in test [3], the “herbicidal effect, Monochoria vaginalis” value is 5 (90% or more of herbicidal effect and crop phytotoxicity).
For the molecule `COc1ccccc1Cn1c(C(F)(F)F)ccc(C(=O)C2=C(O)CCCC2=O)c1=O` [I-120], the “herbicidal effect, Scirpus juncoides Roxb.” value in test [1] is 5 (90% or more of herbicidal effect and crop phytotoxicity). Moreover, the “herbicidal effect, Echinochloa oryzicola Vasing” value in test [2] was 5 (90% or more of herbicidal effect and crop phytotoxicity). Also, the “herbicidal effect, Monochoria vaginalis” value in test [3] is 5 (90% or more of herbicidal effect and crop phytotoxicity).
For `CCCS(=O)(=O)Oc1c(C(=O)c2ccc(C(F)(F)F)n(CCC[S+](C)[O-])c2=O)cnn1C` (stereo not drawn) [IV-59], in test [1], the “herbicidal effect, Scirpus juncoides Roxb.” value is 3 (50 to less than 70% of herbicidal effect and crop phytotoxicity). Besides, in test [2], the “herbicidal effect, Echinochloa oryzicola Vasing” value was 4 (70 to less than 90% of herbicidal effect and crop phytotoxicity). The “herbicidal effect, Monochoria vaginalis” value in test [3] is 4 (70 to less than 90% of herbicidal effect and crop phytotoxicity).
Turning to `CN(C(=O)OCc1ccccc1)n1c(C(F)(F)F)ccc(C(=O)C2=C(O)CCCC2=O)c1=O` [I-197], the “herbicidal effect, Scirpus juncoides Roxb.” value in test [1] is 5 (90% or more of herbicidal effect and crop phytotoxicity). In addition, in test [2], the “herbicidal effect, Echinochloa oryzicola Vasing” value is 5 (90% or more of herbicidal effect and crop phytotoxicity). Moreover, in test [3], the “herbicidal effect, Monochoria vaginalis” value was 5 (90% or more of herbicidal effect and crop phytotoxicity).
Take `Cc1ccc(S(=O)(=O)Oc2c(C(=O)c3ccc(C(F)(F)F)n(C)c3=O)cnn2C)cc1` [IV-194, 4-[1,2-dihydro-1-methyl-2-oxo-6-(trifluoromethyl)pyridine-3-carbonyl]-1-methyl-5-tosyloxy-1H-pyrazole]: the “herbicidal effect, Scirpus juncoides Roxb.” value in test [1] was 5 (90% or more of herbicidal effect and crop phytotoxicity). Further, in test [2], the “herbicidal effect, Echinochloa oryzicola Vasing” value was 5 (90% or more of herbicidal effect and crop phytotoxicity). For the same molecule, the “herbicidal effect, Monochoria vaginalis” value in test [3] is 5 (90% or more of herbicidal effect and crop phytotoxicity).
Take `O=C1CCCC(O)=C1C(=O)c1ccc(C(F)(F)F)n(-c2ccc(NS(=O)(=O)C(F)(F)F)cc2)c1=O` [I-97]: the “herbicidal effect, Scirpus juncoides Roxb.” value in test [1] is 4 (70 to less than 90% of herbicidal effect and crop phytotoxicity). Also, the “herbicidal effect, Echinochloa oryzicola Vasing” value in test [2] is 4 (70 to less than 90% of herbicidal effect and crop phytotoxicity). For the same molecule, the “herbicidal effect, Monochoria vaginalis” value in test [3] is 5 (90% or more of herbicidal effect and crop phytotoxicity).
For the molecule `Cn1ncc(C(=O)c2ccc(C(F)(F)F)n(CC3CCCO3)c2=O)c1OC(=O)c1c(F)cc(F)cc1F` (stereo not drawn) [IV-134], the “herbicidal effect, Scirpus juncoides Roxb.” value in test [1] was 5 (90% or more of herbicidal effect and crop phytotoxicity). Further, in test [2], the “herbicidal effect, Echinochloa oryzicola Vasing” value was 5 (90% or more of herbicidal effect and crop phytotoxicity). In addition, in test [3], the “herbicidal effect, Monochoria vaginalis” value is 5 (90% or more of herbicidal effect and crop phytotoxicity).

The values above are taken from patent US8076487B2, “Pyridone derivative and herbicide” (Kumiai Chemical Industry Co., Ltd., priority 2006, dated 2011).
